# Data: the supplement of paper PMC8960247
# Counter-ions that a name gives are not always drawn. ± gives the standard error.
# Legend:
# UMB1949 (TSC2-deficient) = test: relative viability vs DMSO (fraction); higher = less cytotoxic; details: serum: 0.1% FBS, 72 h;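 note: renal angiomyolipoma cell lines screened in 384-well plates, viability normalized per plate to DMSO-treated cells, each plate carrying 50 nM rapamycin and 1 µM staurosporine controls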
# 621-102 (TSC2-deficient) [1] = test: as above; details: serum: 0.1% FBS, 72 h
# 621-103 (TSC2-rescued) = test: relative viability vs DMSO; higher = less cytotoxic; details: serum: 10% FBS, 72 h
# 621-102 (TSC2-deficient) [2] = test: as above; details: serum: 10% FBS, 72 h
Compound,relative viability (UMB1949 (TSC2-deficient); 0.0128 nM),relative viability (UMB1949 (TSC2-deficient); 0.064 nM),relative viability (UMB1949 (TSC2-deficient); 0.32 nM),relative viability (UMB1949 (TSC2-deficient); 1.6 nM),relative viability (UMB1949 (TSC2-deficient); 8 nM),relative viability (UMB1949 (TSC2-deficient); 40 nM),relative viability (UMB1949 (TSC2-deficient); 200 nM),relative viability (UMB1949 (TSC2-deficient); 1000 nM),relative viability (UMB1949 (TSC2-deficient); 5000 nM),relative viability (621-102 (TSC2-deficient) [1]; 0.0128 nM),relative viability (621-102 (TSC2-deficient) [1]; 0.064 nM),relative viability (621-102 (TSC2-deficient) [1]; 0.32 nM),relative viability (621-102 (TSC2-deficient) [1]; 1.6 nM),relative viability (621-102 (TSC2-deficient) [1]; 8 nM),relative viability (621-102 (TSC2-deficient) [1]; 40 nM),relative viability (621-102 (TSC2-deficient) [1]; 200 nM),relative viability (621-102 (TSC2-deficient) [1]; 1000 nM),relative viability (621-102 (TSC2-deficient) [1]; 5000 nM),relative viability (621-103 (TSC2-rescued); 0.0001 µM) [%],relative viability (621-103 (TSC2-rescued); 0.001 µM) [%],relative viability (621-103 (TSC2-rescued); 0.01 µM) [%],relative viability (621-103 (TSC2-rescued); 0.1 µM) [%],relative viability (621-103 (TSC2-rescued); 1 µM) [%],relative viability (621-103 (TSC2-rescued); 10 µM) [%],relative viability (621-102 (TSC2-deficient) [2]; 0.0001 µM) [%],relative viability (621-102 (TSC2-deficient) [2]; 0.001 µM) [%],relative viability (621-102 (TSC2-deficient) [2]; 0.01 µM) [%],relative viability (621-102 (TSC2-deficient) [2]; 0.1 µM) [%],relative viability (621-102 (TSC2-deficient) [2]; 1 µM) [%],relative viability (621-102 (TSC2-deficient) [2]; 10 µM) [%]
COc1cc(Nc2ncc3c(n2)-c2ccc(Cl)cc2C(c2c(F)cccc2OC)=NC3)ccc1C(=O)O [MLN8237],0.99,0.824,0.525,0.215,0.146,0.0466,0.0216,0.0132,0.0159,0.864,0.862,0.767,0.248,0.118,0.0792,0.0576,0.0449,0.0354,103 ± 2.5,103.9 ± 0.17,98.7 ± 2.3,93.8 ± 1,91.1 ± 1.4,74.62 ± 0.32,102 ± 2.6,87.64 ± 0.83,95.68 ± 0.57,87.6 ± 0.9,74.6 ± 5.1,69.9 ± 2.5
Nc1ccn([C@@H]2O[C@H](CO)[C@@H](O)C2(F)F)c(=O)n1 [Gemcitabine Hydrochloride],1.06,1.01,1.02,0.0319,0.014,0.00861,0.007,0.00362,0.00263,1.07,0.96,0.953,0.0927,0.0285,0.023,0.0148,0.008,0.00219,103 ± 1.8,95.2 ± 9.7,51.9 ± 0.63,50 ± 2.1,41.866 ± 0.0075,28.5 ± 1.5,108 ± 11,93 ± 1.5,52.67 ± 0.069,52.6 ± 0.69,44.7 ± 3.6,32.9 ± 0.75
C=C1C[C@@H]2[C@H](CC[C@]3(C)C(=O)CC[C@@H]23)[C@@]2(C)C=CC(=O)C=C12 [Exemestane],0.936,0.98,0.996,1.01,1.08,1.02,0.927,0.859,0.773,1.16,1.08,1.02,0.948,1.06,1.11,1.12,0.94,0.891,100.1 ± 0.24,101 ± 2.2,104 ± 1.6,100 ± 1.2,97.5 ± 1.4,92.3 ± 2.7,130 ± 2.1,122 ± 5.8,119 ± 1.2,114 ± 3.2,113 ± 5.9,105 ± 3.4
CC(C)C[C@@H](C(=O)N[C@H](C(=O)OC1CCCC1)c1ccccc1)[C@H](O)C(=O)NO [CHR-2797],1.06,0.998,0.978,1.02,0.982,0.804,0.875,0.595,0.0151,0.86,0.866,0.628,0.884,0.614,0.512,0.414,0.345,0.144,103 ± 2.1,105.3 ± 0.65,115 ± 1.4,111 ± 7.5,104.4 ± 0.14,89.6 ± 2.7,112 ± 1.6,116 ± 2.4,114.53 ± 0.03,102 ± 1.6,89.8 ± 1.5,82 ± 2.1
Cn1cncc1[C@@](N)(c1ccc(Cl)cc1)c1ccc2c(c1)c(-c1cccc(Cl)c1)cc(=O)n2C [Tipifarnib],0.938,0.909,0.836,0.961,0.974,0.798,0.525,0.25,0.0103,0.693,0.533,0.634,0.552,0.512,0.592,0.436,0.274,0.0644,95.09 ± 0.41,96 ± 1.6,98.8 ± 1.9,81.5 ± 3.5,75.86 ± 0.6,64.3 ± 0.85,99.6 ± 4.2,117 ± 2.7,93.9 ± 2.1,89.4 ± 1.5,76.4 ± 2.5,63.3 ± 1.7
CC1(C)CC(=O)c2c(C(F)(F)F)nn(-c3ccc(C(N)=O)c(N[C@H]4CC[C@H](O)CC4)c3)c2C1 [SNX-2112],0.771,0.292,0.334,0.0113,0.00964,0.00549,0.00248,0.00255,0.00394,0.829,0.471,0.381,0.19,0.232,0.0887,0.0644,0.0224,0.0194,112 ± 4,111 ± 1.2,84.4 ± 1.3,7.98 ± 0.57,6.9 ± 0.43,6.78 ± 0.53,60.2 ± 9.5,66.4 ± 8.2,45.4 ± 5.8,21.9 ± 0.44,18.9 ± 2.6,14.8 ± 0.6
Cn1c(Nc2ccc(C(F)(F)F)cc2)nc2cc(Oc3ccnc(-c4ncc(C(F)(F)F)[nH]4)c3)ccc21 [RAF265],1.1,1.02,1.13,1.06,1.19,1.11,0.216,0.00279,0.00183,1.01,1.13,1.04,1.07,0.927,0.488,0.0802,0.0481,0.00102,99.71 ± 0.95,102 ± 2.3,100.7 ± 0.72,92.7 ± 2.6,78.2 ± 2.2,64.1 ± 0.7,111 ± 3.9,107 ± 4.3,101 ± 2.5,92.9 ± 1.1,60.4 ± 1.5,41.5 ± 2
CO[C@H]1C[C@@H]2CC[C@@H](C)[C@@](O)(O2)C(=O)C(=O)N2CCCC[C@H]2C(=O)O[C@H]([C@H](C)C[C@@H]2CC[C@@H](OC(=O)C(C)(CO)CO)[C@H](OC)C2)CC(=O)[C@H](C)/C=C(\C)[C@@H](O)[C@@H](OC)C(=O)[C@H](C)C[C@H](C)/C=C/C=C/C=C/1C [Temsirolimus],0.901,0.874,0.846,0.894,0.91,0.816,0.629,0.415,0.379,0.696,0.68,0.714,0.666,0.524,0.422,0.263,0.274,0.171,84.1 ± 1.2,75.1 ± 3.1,78.7 ± 1.2,83.1 ± 3.1,76.9 ± 5,67.44 ± 0.43,40.82 ± 0.13,40.9 ± 3.7,36.1 ± 3.5,36.5 ± 3.5,41.1 ± 4.7,40.6 ± 4.3
CC[C@@]1(O)C(=O)OCc2c1cc1n(c2=O)Cc2cc3c(CN(C)C)c(O)ccc3nc2-1 [Topotecan Hydrochloride],1.08,1.08,1.03,0.883,0.692,0.00466,0.00116,0.000564,0.0011,1.03,0.984,1.06,0.956,0.888,0.268,0.0393,0.00545,0.000822,106 ± 1.4,110.5 ± 0.33,102 ± 1.7,80.31 ± 0.015,26.9 ± 0.65,7.57 ± 0.098,105 ± 5.7,110 ± 4.5,103 ± 3.6,80.067 ± 0.0095,30.3 ± 2.4,12.7 ± 0.7
